# Measured values as given in patent US8283382B2, “Vitamin K for prevention and treatment of skin rash secondary to anti-EGFR therapy” (Albert Einstein College of Medicine of Yeshiva University, priority 2005, dated 2012).
# Entries after “also recorded” stand apart in the source; their conditions may differ.
# What was measured:
# [1] = tested on: A431 vulvar carcinoma cells; assay: Erlotinib-induced cell growth inhibition / cytotoxicity by cell counting; format: cell-based, human
# Procedure: (§1) Two human cell lines that overexpress non-mutated EGFR were used: A431 vulvar carcinoma and HN5 head and neck carcinoma. Cells were exposed to different concentrations of different vitamin K analogs in the presence of one of three EGFR inhibitors: the anti-EGFR monoclonal antibody cetuximab (Erbitux®) and the EGFR tyrosine kinase inhibitors (TKIs) erlotinib (Tarceva®) and gefitinib (Iressa®). Cytotoxicity was assessed by cell counting. Cells were lysed and the effects of different vitamin K analogs on activation of EGFR, the kinase Akt, and Signal Transducer and Activator of Transcription-3 (STAT-3) were assessed by western blot analysis using antibodies for the phosphorylated (activated) forms of EGFR, Akt and Stat-3. […] Vitamins K1, K2, and K3 were purchased from Sigma-Aldrich (St Louis, Mo.). Activation of EGFR, Akt and Stat-3 were assessed in the presence and absence of anti-EGFR treatments of the cells. Activation of EGFR by vitamin K analog was also assessed using mouse skin, which was homogenized and lysed after treatment with the vitamin K analog. Phosphatase activity was determined using pNPP (4-nitrophenyl phosphate disodium) as a substrate.
# Akt = assay: Western blot of phosphorylated Akt in A431 / HN5 cells; format: cell-based, human; details: for concentration at which activation of Akt was seen / activation (phosphorylation) of Akt: A431 cells, 2 hours exposure; for activation (phosphorylation) of Akt: concentrations up to 1000 μM
# Procedure: (§2) FIG. 1A-1C. Effects of Vitamins K1, K2 and K3 (VK1, VK2, VK3) on the phosphorylation of EGFR (A), AKT (B) and Stat-3 (C) in human A431 vulvar carcinoma cells. A431 cells (1×10^6 cells/well) were plated in a 6-well plate, and incubated in RPMI-1640 medium with 10% serum overnight. Cells were exposed to the indicated concentrations of VK1, VK2 and VK3 for 2 hours. Following exposure, cells were washed twice with cold phosphate buffered saline (PBS) solution, and lysed with 50 μl of lysis buffer. Equal amounts of lysate (30 μg of protein) were subjected to a 7.5% or a 12% SDS-PAGE. EGFR, phos-EGFR, AKT, phos-AKT, Stat-3, and phos-Stat-3 were detected by immunoblotting analysis using corresponding antibodies. Vitamin K3 stimulated EGFR, Akt and Stat-3.
# (§3) Two human cell lines that overexpress non-mutated EGFR were used: A431 vulvar carcinoma and HN5 head and neck carcinoma. Cells were exposed to different concentrations of different vitamin K analogs in the presence of one of three EGFR inhibitors: the anti-EGFR monoclonal antibody cetuximab (Erbitux®) and the EGFR tyrosine kinase inhibitors (TKIs) erlotinib (Tarceva®) and gefitinib (Iressa®). Cytotoxicity was assessed by cell counting. Cells were lysed and the effects of different vitamin K analogs on activation of EGFR, the kinase Akt, and Signal Transducer and Activator of Transcription-3 (STAT-3) were assessed by western blot analysis using antibodies for the phosphorylated (activated) forms of EGFR, Akt and Stat-3. Polyclonal antibodies of anti-EGFR, anti-phos-EGFR (Tyr1068), anti-AKT, anti-phos-AKT (Ser473), anti-Stat-3, and anti-phos-Stat-3 (Tyr-705) were purchased from Cell Signaling (Beverly, Mass.). Vitamins K1, K2, and K3 were purchased from Sigma-Aldrich (St Louis, Mo.). Activation of EGFR, Akt and Stat-3 were assessed in the presence and absence of anti-EGFR treatments of the cells. Activation of EGFR by vitamin K analog was also assessed using mouse skin, which was homogenized and lysed after treatment with the vitamin K analog. Phosphatase activity was determined using pNPP (4-nitrophenyl phosphate disodium) as a substrate.
# phosphatase activity = assay: Phosphatase activity in A431 cell extracts with pNPP substrate; format: cell-based, human
# Procedure: FIG. 5. […] A431 cells were exposed to 0.1 mM VK3 for 1 hour. After exposure, cells were washed three times with cold medium and then reincubated in VK3-free medium with 10% fetal bovine serum for the indicated time. Cells were harvested and cell extracts were prepared for the assay of phosphatase activity using pNPP (4-nitrophenyl phosphate disodium) as a substrate. Control (Con) means the phosphatase activity in cells without exposure to VK3. The relative phosphatase activity was expressed as compared with that in control as one. VK3-induced phosphatase inhibition is reversible following removal of VK3.
# as §1
# EGFR [2] = target: EGFR (Mus musculus, UniProt Q01279); assay: EGFR phosphorylation in mouse skin tissue (immunoblot)
# Sequence of EGFR (Mus musculus, UniProt Q01279) (Q01279 25-1210): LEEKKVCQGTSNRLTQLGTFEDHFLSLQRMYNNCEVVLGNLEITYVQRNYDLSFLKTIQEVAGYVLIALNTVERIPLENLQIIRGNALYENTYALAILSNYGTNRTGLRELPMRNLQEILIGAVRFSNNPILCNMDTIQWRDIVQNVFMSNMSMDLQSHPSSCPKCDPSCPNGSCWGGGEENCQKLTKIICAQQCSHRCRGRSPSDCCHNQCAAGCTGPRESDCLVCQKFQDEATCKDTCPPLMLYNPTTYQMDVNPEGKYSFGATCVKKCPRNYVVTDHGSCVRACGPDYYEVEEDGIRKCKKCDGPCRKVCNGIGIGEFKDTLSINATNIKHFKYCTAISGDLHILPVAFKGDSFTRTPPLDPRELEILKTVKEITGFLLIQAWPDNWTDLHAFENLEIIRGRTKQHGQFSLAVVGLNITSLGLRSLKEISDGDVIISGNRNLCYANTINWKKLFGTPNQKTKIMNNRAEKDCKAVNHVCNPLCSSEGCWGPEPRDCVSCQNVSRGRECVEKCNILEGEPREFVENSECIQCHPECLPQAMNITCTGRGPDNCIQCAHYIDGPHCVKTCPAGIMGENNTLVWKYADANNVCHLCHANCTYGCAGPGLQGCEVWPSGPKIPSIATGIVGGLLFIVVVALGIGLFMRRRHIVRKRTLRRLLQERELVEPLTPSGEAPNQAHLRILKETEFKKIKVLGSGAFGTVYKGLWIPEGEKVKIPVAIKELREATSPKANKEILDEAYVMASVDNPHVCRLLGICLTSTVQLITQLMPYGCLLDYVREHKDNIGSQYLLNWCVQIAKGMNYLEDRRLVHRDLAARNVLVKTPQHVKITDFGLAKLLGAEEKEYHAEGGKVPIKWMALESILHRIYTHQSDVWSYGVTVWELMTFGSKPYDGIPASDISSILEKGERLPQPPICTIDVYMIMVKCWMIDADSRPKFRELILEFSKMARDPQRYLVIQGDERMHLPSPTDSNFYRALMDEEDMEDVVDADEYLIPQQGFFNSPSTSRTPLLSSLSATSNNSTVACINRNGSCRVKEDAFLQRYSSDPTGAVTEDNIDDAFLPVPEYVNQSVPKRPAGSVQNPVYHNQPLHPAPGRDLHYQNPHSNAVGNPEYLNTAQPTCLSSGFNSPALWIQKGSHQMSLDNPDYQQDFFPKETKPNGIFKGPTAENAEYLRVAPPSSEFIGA
# Procedure: Effect of Vitamin K3 (menadione) on erlotinib-induced inhibition of EGFR phosphorylation in mouse skin. […] Mice were administrated P.O. daily 50 mg/kg of erlotinib; mouse skin was smeared with VK3 15 mM ethanol solution. After treatment, the mice were sacrificed and skin tissue was taken. 100 mg skin tissue was used for the preparation of tissue extracts. Equal amounts of skin tissue extracts (80 μg of protein) were subjected on a 7.5% SDS-PAGE. Total EGFR and p-EGFR were detected by immunoblot analysis.
# Effect of VK3, Cream B and Cream VK on EGFR phosphorylation in mouse skin tissue. The mice were smeared with 30 mM or 100 mM VK3 (in ethanol), or with the same doses of Cream B or Cream VK. Following treatment, mice were sacrificed and skin tissues were taken for the preparation of tissue extracts. Equal amounts of tissue extracts (80 μg of protein) were subjected on a 7.5% of SDS-PAGE. Total EGFR and p-EGFR were detected by immunoblot analysis using polyclonal anti-EGFR and p-EGFR antibodies. Cream B is an over the counter product (Baby Cakes) containing Vitamin K3 according to its label; the concentration is not specified. Cream VK is a 5% Vitamin K cream available over the counter.
# The effect of Vitamin K3 was examined in the skin of animals receiving the EGFR TK inhibitor erlotinib 100 mg/kg×10 days (days 1-10). […] The skin of mice was smeared with Vitamin K3 in ethanol (15 mM BID×5 days on days 5 to 10). The effect of Vitamin K3 was compared to that of two over-the-counter skin creams. Cream B (Baby Cakes) is an over-the-counter product containing Vitamin K3 according to its label; the concentration is not specified. Cream VK is a 5% Vitamin K cream available over-the-counter.
# Stat-3 = assay: Western blot of phosphorylated Stat-3 in A431 / HN5 cells; format: cell-based, human; details: for activation (phosphorylation) of Stat-3: concentrations up to 1000 μM
# Procedure: as §2, §3
# [3] = cited from earlier work
# EGFR [4] = target: T1, EGFR (Homo sapiens, UniProt P00533); assay: Western blot of phosphorylated EGFR in A431 / HN5 cells; format: cell-based; details: for concentration at which activation of EGFR was seen / activation (phosphorylation) of EGFR: 2 hours exposure; for activation (phosphorylation) of EGFR: concentrations up to 1000 μM; for concentration at which activation was seen, converted to mass concentration: K3: EGFR, Akt and Stat-3, K1: EGFR and Akt
# T1 construct: Two human cell lines that overexpress non-mutated EGFR were used; endogenous in cells; host or cells: A431 vulvar carcinoma; HN5 head and neck carcinoma
# T1 sequence (P00533 25-1210): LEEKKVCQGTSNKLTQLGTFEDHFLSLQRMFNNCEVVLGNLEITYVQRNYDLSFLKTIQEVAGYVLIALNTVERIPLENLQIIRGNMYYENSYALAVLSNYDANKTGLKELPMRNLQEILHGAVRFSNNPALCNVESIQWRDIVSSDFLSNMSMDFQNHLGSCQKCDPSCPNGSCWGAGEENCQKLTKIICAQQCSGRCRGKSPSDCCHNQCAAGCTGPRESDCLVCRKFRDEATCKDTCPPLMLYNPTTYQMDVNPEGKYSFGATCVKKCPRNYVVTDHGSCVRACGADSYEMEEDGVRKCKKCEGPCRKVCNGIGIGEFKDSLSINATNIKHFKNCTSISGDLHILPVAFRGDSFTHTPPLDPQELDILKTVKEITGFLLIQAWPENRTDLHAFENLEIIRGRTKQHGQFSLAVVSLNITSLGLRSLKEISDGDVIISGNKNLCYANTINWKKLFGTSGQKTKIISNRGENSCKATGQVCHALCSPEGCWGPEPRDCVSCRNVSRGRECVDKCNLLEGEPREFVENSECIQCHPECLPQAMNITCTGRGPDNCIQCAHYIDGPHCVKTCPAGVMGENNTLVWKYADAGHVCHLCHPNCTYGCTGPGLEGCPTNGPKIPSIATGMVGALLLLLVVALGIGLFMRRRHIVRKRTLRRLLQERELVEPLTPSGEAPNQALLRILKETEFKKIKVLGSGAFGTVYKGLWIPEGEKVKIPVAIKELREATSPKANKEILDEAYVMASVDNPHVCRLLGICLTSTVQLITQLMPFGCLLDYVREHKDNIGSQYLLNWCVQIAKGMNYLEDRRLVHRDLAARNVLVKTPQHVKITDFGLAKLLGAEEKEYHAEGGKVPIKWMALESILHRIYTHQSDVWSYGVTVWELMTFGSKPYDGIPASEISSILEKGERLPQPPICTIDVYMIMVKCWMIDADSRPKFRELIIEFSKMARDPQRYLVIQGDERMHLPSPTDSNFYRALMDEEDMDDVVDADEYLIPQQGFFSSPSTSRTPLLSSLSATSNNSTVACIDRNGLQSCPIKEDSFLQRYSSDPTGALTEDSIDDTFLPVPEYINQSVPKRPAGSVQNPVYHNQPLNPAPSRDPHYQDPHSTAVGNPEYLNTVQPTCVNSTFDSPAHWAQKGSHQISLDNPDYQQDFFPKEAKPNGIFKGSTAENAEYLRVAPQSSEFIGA
# Procedure: as §2, with “A431 cells (1×10^6 cells/well) were plated in a 6-well plate, and incubated in RPMI-1640 medium with 10% serum overnight.” left out, “antibodies.” for “antibodies. Vitamin K3 stimulated EGFR, Akt and Stat-3.”
# FIG. 2. […] After exposure, cells were washed twice with cold PBS solution, and lysed with 50 μl of lysis buffer. Equal amounts of lyaste (30 μg of protein) were subjected to a 7.5% SDS-PAGE. EGFR and phosphorylated EGFR were detected by immunoblotting analysis using corresponding antibodies.
# FIG. 4A-4B. […] Cells were exposed to 0.1 mM VK3 for 1 hour. Following exposure, cells were washed three times with cold medium and then reincubated in VK3-free fresh medium with 10% fetal bovine serum for the indicated times. Cells were harvested and lysed with lysis buffer. Equal amounts of cell lysate were subjected on 7.5% SDS-PAGE (A). The total EGFR and phosphorylated EGFR (p-EGFR) were detected by immunoblot analysis using corresponding antibodies. Control (Con) means cells were not exposed to VK3. The relative p-EGFR was expressed as the intensity of p-EGFR bands in each time points measured by a laser densitometry compared with that in control as one (B).
# as §1
# [5] = Matschiner et al., 1972; cited from earlier work
smiles,measurement,setting,value
C#Cc1cccc(Nc2ncnc3cc(OCCOC)c(OCCOC)cc23)c1 [erlotinib],effect of exposure on cells,"[1]; A431 cells, erlotinib alone",cell death
"CC1=CC(=O)c2ccccc2C1=O [Vitamin K3, 2-methyl-1,4-naphthoquinone]",concentration at which activation of Akt was seen,Akt,100 µM
same,activation (phosphorylation) of Akt,Akt,stimulated; also recorded: activated
same,activation of Akt in the presence of erlotinib,"Akt; A431 or HN5 cells, erlotinib 2 μM, at 0.5 mM vitamin K3",activated
same,activation of Akt in the presence of cetuximab,Akt; Vitamin K3 0.1 and 0.5 mM,activated
same,effect on phosphatase activity,"phosphatase activity; A431 cells, 0.1 mM VK3 for 1 hour, pNPP substrate",inhibits phosphatase activity; also recorded: inhibiting phosphatase activity
same,time after removal at which phosphatase inhibition is reversed,"phosphatase activity; A431 cells, reincubation in VK3-free medium",2 to 3 h
same,reversibility of phosphatase inhibition,phosphatase activity; following removal of VK3,reversible
same,decrease of cytotoxicity of the EGFR inhibitor (erlotinib),"[1]; co-incubation with Vitamin K3 50-100 μM, 72 hours, cell counting",4-6 fold
same,p-EGFR in skin of mice receiving erlotinib,"EGFR [2]; erlotinib P.O. daily, skin smeared with Vitamin K3 15 mM in ethanol BID x 5 days (days 5 to 10)",rescues; also recorded: significant p-EGFR expression
same,EGFR phosphorylation in mouse skin tissue,"EGFR [2]; skin smeared with 30 mM or 100 mM (VK3 in ethanol) x 3 doses every 12 hours, same doses of creams",activates EGFR
same,activation of EGFR in normal mouse skin,EGFR [2]; topical application,activated
same,concentration at which activation of Stat-3 was seen,"Stat-3; A431 cells, 2 hours exposure",100 µM
same,activation (phosphorylation) of Stat-3,"Stat-3; A431 cells, 2 hours exposure",stimulated; also recorded: activated
same,activation of Stat-3 in the presence of erlotinib,"Stat-3; A431 or HN5 cells, erlotinib 2 μM, at 0.1 and 0.5 mM vitamin K3",activated
same,activation of Stat-3 in the presence of cetuximab,Stat-3; Vitamin K3 0.1 and 0.5 mM,activated
same,dermatitis on topical administration,"[3]; Page et al., 1942",can cause dermatitis
same,vesiculation of the skin on topical administration,"[3]; Ulbrich, 1961",vesiculation of the skin
same,reversibility of induced EGFR phosphorylation,"EGFR [4]; A431 cells, 0.1 mM VK3 1 hour, then VK3-free medium",reversible
same,concentration at which activation of EGFR was seen,EGFR [4]; A431 cells,100 µM
same,activation (phosphorylation) of EGFR,EGFR [4]; A431 cells,stimulated; also recorded: activated
same,"concentration at which activation was seen, converted to mass concentration",EGFR [4]; A431 cells,about 17 μg/ml
same,activation of EGFR in the presence of erlotinib,"EGFR [4]; A431 or HN5 cells, serum free medium, erlotinib 2 μM, Vitamin K3 0.01-0.5 mM, 2 hours",prevents the inhibition of EGFR phosphorylation; also recorded: activated
same,activation of EGFR in the presence of cetuximab,EGFR [4]; Vitamin K3 0.1 and 0.5 mM,activated
"CC(C)=CCC/C(C)=C/CC/C(C)=C/CC/C(C)=C/CC/C(C)=C/CC/C(C)=C/CC1=C(C)C(=O)c2ccccc2C1=O [Vitamin K2, 2-methyl-3-hexaprenyl-1,4-naphthoquinone]",activation (phosphorylation) of Akt,Akt,little or no effect
same,activation (phosphorylation) of Stat-3,"Stat-3; A431 cells, 2 hours exposure",little or no effect
same,activation (phosphorylation) of EGFR,EGFR [4]; A431 cells,little or no effect
"CC1=C(C/C=C(/C)CCC[C@H](C)CCC[C@H](C)CCCC(C)C)C(=O)c2ccccc2C1=O (single isomer, unassigned) [cis isomer]",biological activity,[5],little or no biological activity
"CC1=C(C/C=C(\C)CCC[C@H](C)CCC[C@H](C)CCCC(C)C)C(=O)c2ccccc2C1=O [Vitamin K1, 2-methyl-3-phytyl-1,4-naphthoquinone]",concentration at which activation of Akt was seen,Akt,1000 µM
same,concentration at which activation of EGFR was seen,EGFR [4]; A431 cells,1000 µM
same,activation (phosphorylation) of EGFR,EGFR [4]; A431 cells,activated
same,"concentration at which activation was seen, converted to mass concentration",EGFR [4]; A431 cells,about 450 μg/ml
